According to US5932709A (University of Michigan, priority 1997, dated 1999):
Values after ≈ are worked out from the molar mass of the structure shown.

Key:
[1] = test system: B16 murine melanoma cells; assay: MTT growth inhibition, B16; format: cell-based; conditions: Mus musculus, 72 h, 3 days, read-out: Growth Inhibitory Activity IC50
Protocol: (§1) Camptothecin was used as a control to test the anti-cancer efficacy of the novel camptothecin analogs of the present invention.
(§2) Murine B16 melanoma cell line was grown in RPMI 1640 medium supplemented with 10% heat-inactivated fetal bovine serum, 2 mM L-glutamine, 50 units/mL penicillin, 50 μg/mL streptomycin, 25 μg/mL gentamicin, 0.75% sodium bicarbonate 10 mM HEPES buffer (pH 7.4), and 0.06 mg/mL AntiPPLO. Murine P388 leukemic cell line and human HT-29 colon adenocarcinoma line were maintained in RPMI 1640 medium supplemented with 10% heat-inactivated fetal bovine serum. […] MCF-7M human breast adenocarcinoma was maintained in IMEM supplemented with 5% non heat-inactivated fetal bovine serum and 1 nM insulin.
(§3) [See "Rapid Colorimetric Assay For Cellular Growth And Survival: Application To Proliferation And Cytotoxicity Assays," J. Immun. Meth. 65:55 (1983)]. The assay utilizes a tetrazolium salt to quantitatively measure mammalian cell survival and proliferation by colorimetric methods. In particular, MTT, a pale yellow compound with minimal absorbance, is incubated with cancerous cells in addition to (or in the absence of) a particular camptothecin analog. Living cells with active mitochondrial enzymes metabolize the MTT into a dark blue/purple formazan product with high absorbance. The exact procedure used to test the camptothecin analogs of the present invention is described below.
(§4) Exponentially growing cells (1-2×10^3 cells, unless specified otherwise) in 0.1 mL medium were seeded on day 0 in a 96-well microtiter plate. On day 1, 0.1 mL aliquots of medium containing graded concentrations of test analogs were added to the cell plates. After incubation at 37° C. in a humidified incubator for 3 days (P388, P388/CPT, B16) or 6 days (HT-29, MCF-7M), the plates were centrifuged briefly and 100 μL of the growth medium was removed. Cell cultures were incubated with 50 μL of 3-(4,5-dimethylthiazol-2-yl)-2,5-diphenyl-tetrazolium bromide [MTT, 1 mg/mL in Dulbecco's phosphate buffered saline (PBS)] for 4 hr at 37° C. The resulting purple formazan precipitate was solubilized with 200 μL of 0.04 N HCl in isopropyl alcohol. Absorbance was monitored in a BioRad Model 3550 Microplate Reader at a test wavelength of 570 nm and a reference wavelength of 630 nm. The absorbance is transferred to a PC 486 computer. The IC50 values were determined by a computer program (EZ-ED50) that fits all of the data to the following four-parameter logistic equation:
(§5) Y=(Amax -Amin)/(1+[X/IC^50 ])^n +Amin
(§6) where Amax is the absorbance of control cells, Amin is the absorbance of cells in the presence of highest agent concentration, IC^50 is the concentration of agent that inhibits the cell growth by 50% of control cells (based on the absorbance) and n is the slope of the curve.

[2] = Water solubility in phosphate buffered saline (spectrophotometric assay); format: physicochemical; conditions: for solubility at 24 h: aqueous buffer, water solubility, PBS pH 7.5, room temperature; for water solubility improvement: compared to camptothecin
Protocol: Approximately 5 mg of test compound was suspended in 1 mL of PBS in a 1.5 mL cryovial. The suspensions were mixed continuously on a Thermolyne vari-mix at room temperature for 24 hr. The suspensions were then centrifuged at 14000×g for 2 minutes to separate the undissolved materials. The supernatant fluids were diluted appropriately with PBS and the ultraviolet spectrums were recorded on a Beckman 640 DU spectrophotometer. For comparison, a standard stock (2 mg/mL in DMSO) solution was prepared for each analog. The ultraviolet spectrum of a 20 of 40 μg/mL standard working solution was measured. The water solubility of each analog was calculated based on the following formula:
Cunknown =Cstandard ×(Aunknown
where Cunknown is the concentration of the unknown solution to be determined; Cstandard is the concentration of the standard working solution (either 20 or 40 μg/mL); Astandard is the absorbance at 350 nm of the standard working solution; DDilution is the appropriate dilution factor used so that the absorbance of the unknown working solution is within the dynamic range of the UV spectrophotometer (less than 2 absorbance units).

[3] = test system: P388/CPT CPT-resistant murine leukemia cells; assay: MTT growth inhibition, P388/CPT; format: cell-based; conditions: Mus musculus, 72 h, 3 days, read-out: Growth Inhibitory Activity IC50
Protocol: as §1, §2, §3, §4, §5, §6

[4] = Murine B16 melanoma model in vivo; design: species or system mouse (B6D2F1); conditions: mouse, in vivo, ip; i.p. daily×5
Protocol: 1) Murine B16 Melanoma Model
For the B16 melanoma model, the following procedure was used. B6D2F1 mice receive i.p. inocula of B16 murine melanoma brei prepared from B16 tumors growing s.c. in mice (day 0). […] If dosing information for agents is not available, the maximum tolerated dose (MTD) is determined in initial dose finding experiments in non-tumored mice.
The mean survival times of all groups are calculated, and results are expressed as mean survival of treated mice/mean survival of control mice (T/C)×100%. A T/C value of 150 means that the mice in the treated group lived 50% longer than those of the control group; this is sometimes referred to as the increase in life span or ILS value.
Mice that survive for 60 days are considered long-term survivors, or cures, in the B16 model. The universally accepted cut-off for activity in this model, which has been for years by the National Cancer Institute, is T/C=125. Conventional use of B16 over the years has set the following levels of activity: T/C<125, no activity, T/C=125-150, weak activity; T/C=150-200, modest activity; T/C=200-300, high activity; T/C>300, with long term survivors; excellent, curative activity.

[5] = test system: P388 murine leukemia cells; assay: MTT growth inhibition, P388; format: cell-based; conditions: Mus musculus, 72 h, 3 days, read-out: Growth Inhibitory Activity IC50
Protocol: as §1, §2, §3, §4, §5, §6

Structure (SMILES) | IC50 [1] [µg/mL] | solubility at 24 h [2] [µg/mL] | water solubility improvement [2] [fold] | IC50 [3] [µg/mL] | MTD [4] [mg/kg] | IC50 [5] [µg/mL]
CC[C@@]1(O)C(=O)OCc2c1cc1n(c2=O)Cc2c-1nc1ccccc1c2CO[C@@H]1C=C[C@H](O[C@H]2O[C@H](CO)[C@@H](O)[C@H](O)[C@H]2O)[C@@H](CO)O1 [HAR6, 7-[4-O-(α-D-glucopyranosyl)-2,3-dideoxy-α-D-erythro-hex-2-enopyranosyl]-oxymethylcamptothecin] | 2.43 (≈ 3.63 µM) | 1620 (≈ 2420 µM) | 80 | 28.4 (≈ 42.5 µM) | 100 | 1.68 (≈ 2.51 µM)
CC[C@@]1(O)C(=O)OCc2c1cc1n(c2=O)Cc2c-1nc1ccccc1c2CO[C@@H]1C=C[C@H](OC(C)=O)[C@@H](COC(C)=O)O1 [HAR4, 7-[4,6-di-O-acetyl-2,3-dideoxy-α-D-erythro-hex-2-enopyranosyl]oxymethylcamptothecin] | 0.026 (≈ 0.044 µM) | 155 (≈ 262 µM) | – | 7.04 (≈ 11.9 µM) | 20 | 0.03 (≈ 0.0508 µM)
CC[C@@]1(O)C(=O)OCc2c1cc1n(c2=O)Cc2c-1nc1ccccc1c2CO[C@@H]1C=C[C@H](O)[C@@H](CO)O1 [HAR7, 7-[2,3-dideoxy-α-D-erythro-hex-2-enopyranosyl]-oxymethylcamptothecin] | 0.173 (≈ 0.342 µM) | 62 (≈ 122 µM) | 16 | 18.7 (≈ 36.9 µM) | – | 0.088 (≈ 0.174 µM)
CC[C@@]1(O)C(=O)OCc2c1cc1n(c2=O)Cc2c-1nc1ccccc1c2CO[C@@H]1C=C[C@H](O[C@H]2O[C@H](COC(C)=O)[C@@H](OC(C)=O)[C@H](OC(C)=O)[C@H]2OC(C)=O)[C@@H](COC(C)=O)O1 [HAR5, 7-[6-O-acetyl-4-O-(2,3,4,6-tetra-O-acetyl-α-D-glucopyranosyl)-2,3-dideoxy-α-D-erythro-hex-2-enopyranosyl]oxymethylcamptothecin] | 0.43 (≈ 0.489 µM) | 35 (≈ 39.8 µM) | – | 21.2 (≈ 24.1 µM) | – | 0.362 (≈ 0.412 µM)
